Measurements published in patent EP1038533A1, “MEDICINAL COMPOSITIONS FOR TREATING IMMUNODEFICIENCY DISEASES” (Nippon Kayaku Kabushiki Kaisha, priority 1997, dated 1999).

System: HIV (human immunodeficiency virus)
Test: Test Example 2: clinical administration of 15-deoxyspergualin injection to five HIV positive carriers
Type: in vivo
Conditions: 0.15 mg/kg body weight/day i.v. 14 days per course; for fatigue (malaise) of the worst kind: 3 courses
Experimental: The therapeutic effect of 15-deoxyspergualin for immunodeficiency was clinically investigated by administering the compound to HIV-infected patients. The details are shown below.
To five (5) carriers diagnosed as HIV positive, the 15-deoxyspergualin injection was intravenously administered for consecutive 14 days in a dose of 0.15 mg/kg body weight/day. This cycle was made one course. Then, no drug period was set for 6 weeks followed by repetition with 2 courses with the same interval between the second course and the third course, as well. The CD4^+ cell count, CD4^+ /CD8^+ level and virus load, etc. were measured immediately before and after each course and 6 weeks after the completion of Course 3, respectively.

[1] = Case 3, Immediately after Course 2
[2] = Case 3, Immediately after Course 3
[3] = Case 3, Immediately before Course 1 (before treatment)
[4] = Case 3, Immediately before Course 2
[5] = Case 3, Immediately before Course 3
[6] = Case 4, 6 Weeks after completion of Course 3
[7] = Case 4, Immediately after Course 1
[8] = Case 4, Immediately after Course 2
[9] = Case 4, Immediately after Course 3
[10] = Case 4, Immediately before Course 1 (before treatment)
[11] = Case 4, Immediately before Course 2
[12] = Case 4, Immediately before Course 3
[13] = Case 5, 6 Weeks after completion of Course 3
[14] = Case 5, Immediately after Course 1
[15] = Case 5, Immediately after Course 2
[16] = Case 5, Immediately after Course 3
[17] = Case 5, Immediately before Course 1 (before treatment)
[18] = Case 5, Immediately before Course 2
[19] = Case 5, Immediately before Course 3

## N=C(N)NCCCCCCC(=O)NC(O)C(=O)NCCCCNCCCN (stereo not drawn) [15-deoxyspergualin]
Case 3, Immediately after Course 1
  Virus loads: 11000 particles/ml
[1]
  CD4^+ T cell counts: 600 µL⁻¹
  CD4^+/CD8^+ levels: 0.75
  Virus loads: 7000 particles/ml
[2]
  CD4^+ T cell counts: 720 µL⁻¹
  CD4^+/CD8^+ levels: 0.90
  Virus loads: 6000 particles/ml
[3]
  CD4^+ T cell counts: 550 µL⁻¹
  CD4^+/CD8^+ levels: 0.69
  Virus loads: 17000 particles/ml
[4]
  CD4^+ T cell counts: 590 µL⁻¹
  CD4^+/CD8^+ levels: 0.72
  Virus loads: 11000 particles/ml
[5]
  CD4^+ T cell counts: 650 µL⁻¹
  CD4^+/CD8^+ levels: 0.84
  Virus loads: 8000 particles/ml
[6]
  CD4^+ cell counts: 910 µL⁻¹
  CD4^+/CD8^+ levels: 0.92
  Virus loads: 13000 particles/ml
[7]
  CD4^+ cell counts: 710 µL⁻¹
  CD4^+/CD8^+ levels: 0.75
  Virus loads: 20000 particles/ml
[8]
  CD4^+ cell counts: 760 µL⁻¹
  CD4^+/CD8^+ levels: 0.85
  Virus loads: 18000 particles/ml
[9]
  CD4^+ cell counts: 850 µL⁻¹
  CD4^+/CD8^+ levels: 0.94
  Virus loads: 15000 particles/ml
[10]
  CD4^+ cell counts: 640 µL⁻¹
  CD4^+/CD8^+ levels: 0.73
  Virus loads: 25000 particles/ml
[11]
  CD4^+ cell counts: 770 µL⁻¹
  CD4^+/CD8^+ levels: 0.83
  Virus loads: 20000 particles/ml
[12]
  CD4^+ cell counts: 840 µL⁻¹
  CD4^+/CD8^+ levels: 0.90
  Virus loads: 17000 particles/ml
[13]
  CD4^+ cell counts: 900 µL⁻¹
  CD4^+/CD8^+ levels: 0.90
  Virus loads: 6000 particles/ml
[14]
  CD4^+ cell counts: 750 µL⁻¹
  CD4^+/CD8^+ levels: 0.80
  Virus loads: 6000 particles/ml
[15]
  CD4^+ cell counts: 820 µL⁻¹
  CD4^+/CD8^+ levels: 0.83
  Virus loads: 6500 particles/ml
[16]
  CD4^+ cell counts: 890 µL⁻¹
  CD4^+/CD8^+ levels: 0.87
  Virus loads: 6000 particles/ml
[17]
  CD4^+ cell counts: 780 µL⁻¹
  CD4^+/CD8^+ levels: 0.79
  Virus loads: 6000 particles/ml
[18]
  CD4^+ cell counts: 810 µL⁻¹
  CD4^+/CD8^+ levels: 0.81
  Virus loads: 7000 particles/ml
[19]
  CD4^+ cell counts: 880 µL⁻¹
  CD4^+/CD8^+ levels: 0.85
  Virus loads: 6500 particles/ml
Cases 1, 3 and 4
  fatigue (malaise) of the worst kind: improved
Cases 2 and 5
  fatigue (malaise) of the worst kind: no change
